Source: US20250368625A1, “PIPERAZINES” (Grünenthal GmbH, priority 2024, published 2025)

Target: T1, human SSTR4 (Homo sapiens, UniProt P31391)
T1 construct: expressed in transfected cells; host or cells: CHO-K1
Assay: hSSTR4 cAMP assay (cAMP accumulation, LANCE Ultra cAMP kit, CHO-K1 human SSTR4 Gi cell line)
Format: cell-based
Conditions: functional agonism, forskolin 10 μM stimulated CHO-K1 human SSTR4 Gi cells, 30 min at 25° C., at least duplicate, averaged; read-out: hSSTR4 EC50
Description: cAMP accumulation assay using a CHO-K1 human SSTR4 Gi cell line.
Quantification of intracellular cAMP was performed using the LANCE Ultra cAMP assay kit from Revvity according to the manufacturer's instructions. CHO-K1 human SSTR4 Gi cell were either seeded in a density of 3K cells per well into a 384 well plate and incubated at 37° C. and 5% CO2 for 18-20 h or a stock of frozen cells were defrosted and seeded in a density of 5K cells per well without any further cultivation directly prior to the assay in a total volume of 5 μL in stimulation buffer. For pre-cultured cells, medium was replaced with 5 μL stimulation buffer before the assay. Cells were then stimulated with forskolin (final concentration 10 μM) and test compound (SSTR4 agonist) in increasing concentrations in duplicates for 30 min at 25° C. After stimulation, cells were lysed by addition of 10 μL of detection buffer (provided with the kit) and cell lysates were further diluted to ensure final cAMP concentrations fitted well into the dynamic range of the test kit. 10 μL of the diluted lysates were then added to respective wells of an OptiPlate-384 microplate. Thereafter, 5 μL of 4× Eu-cAMP tracer working solution was added, followed by addition of 5 μL of ULight-anti-cAMP working solution. The plate was then incubated for 1 h at 25° C. before reading on a TR-FRET microplate instrument. Data were normalized to cAMP high (forskolin only) and low control (forskolin+100 nM SST14) before fitting to a 4-Paramter logistic function.
All data was generated according to the cAMP assay conditions described above in at least duplicate and results are averaged and rounded to two significant figures.

T1 sequence (P31391 whole entry): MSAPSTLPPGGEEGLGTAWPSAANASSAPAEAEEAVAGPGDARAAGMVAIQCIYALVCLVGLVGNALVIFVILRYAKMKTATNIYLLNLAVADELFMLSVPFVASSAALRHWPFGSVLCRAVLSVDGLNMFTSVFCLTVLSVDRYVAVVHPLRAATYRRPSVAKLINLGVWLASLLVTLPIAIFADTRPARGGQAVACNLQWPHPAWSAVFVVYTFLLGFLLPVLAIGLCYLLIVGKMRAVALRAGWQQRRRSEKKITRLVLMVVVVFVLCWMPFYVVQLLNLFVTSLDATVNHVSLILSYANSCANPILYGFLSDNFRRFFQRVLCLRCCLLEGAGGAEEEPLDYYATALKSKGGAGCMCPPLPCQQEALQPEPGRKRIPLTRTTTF

EC50 [nM]	SMILES
12	Cc1cccn2c(C(C)(C)NC(=O)[C@@H]3CNCCN3CC3(C)COC3)ncc12 [SC-031, (S)-N-(2-(8-methylimidazo[1,5-a]pyridin-3-yl)propan-2-yl)-1-((3-methyloxetan-3-yl)methyl)piperazine-2-carboxamide]
0.23	Cc1cccn2c(C(C)(C)NC(=O)[C@@H]3CNCCN3C3CCC(F)(F)CC3)ncc12 [SC-032, (S)-1-(4,4-difluorocyclohexyl)-N-(2-(8-methylimidazo[1,5-a]pyridin-3-yl)propan-2-yl)piperazine-2-carboxamide]
0.38	Cc1cccn2c(C(C)(C)NC(=O)[C@@H]3CNCCN3CC3CCC3)ncc12 [SC-033, (S)-1-(cyclobutylmethyl)-N-(2-(8-methylimidazo[1,5-a]pyridin-3-yl)propan-2-yl)piperazine-2-carboxamide]
0.25	Cc1cccn2c(C(C)(C)NC(=O)[C@@H]3CNCCN3CC(C)C)ncc12 [SC-034, (S)-1-isobutyl-N-(2-(8-methylimidazo[1,5-a]pyridin-3-yl)propan-2-yl)piperazine-2-carboxamide]
0.35	Cc1cccn2c(C(C)(C)NC(=O)[C@@H]3CNCCN3C(C)C)ncc12 [SC-035, (S)-1-isopropyl-N-(2-(8-methylimidazo[1,5-a]pyridin-3-yl)propan-2-yl)piperazine-2-carboxamide]
0.09	Cc1cccn2c(C(C)(C)NC(=O)[C@@H]3CNCCN3Cc3ccnc(C(F)(F)F)c3)ncc12 [SC-036, (S)-N-(2-(8-methylimidazo[1,5-a]pyridin-3-yl)propan-2-yl)-1-((2-(trifluoromethyl)pyridin-4-yl)methyl)piperazine-2-carboxamide]
1.7	Cc1cccn2c(C(C)(C)NC(=O)[C@@H]3CNCCN3CC3(C)CCOCC3)ncc12 [SC-037, (S)-N-(2-(8-methylimidazo[1,5-a]pyridin-3-yl)propan-2-yl)-1-((4-methyltetrahydro-2H-pyran-4-yl)methyl)piperazine-2-carboxamide]
0.6	Cc1cccn2c(C(C)(C)NC(=O)[C@@H]3CNCCN3Cc3cnc(C(F)(F)F)nc3)ncc12 [SC-038, (S)-N-(2-(8-methylimidazo[1,5-a]pyridin-3-yl)propan-2-yl)-1-((2-(trifluoromethyl)pyrimidin-5-yl)methyl)piperazine-2-carboxamide]
1.4	COCC(C)(C)CN1CCNC[C@H]1C(=O)NC(C)(C)c1ncc2c(C)cccn12 [SC-039, (S)-1-(3-methoxy-2,2-dimethylpropyl)-N-(2-(8-methylimidazo[1,5-a]pyridin-3-yl)propan-2-yl)piperazine-2-carboxamide]
0.39	Cc1cccc2c(C(C)(C)NC(=O)[C@@H]3CNCCN3C(C)C)n[nH]c12 [SC-040, (S)-1-isopropyl-N-(2-(7-methyl-1H-indazol-3-yl)propan-2-yl)piperazine-2-carboxamide]
0.22	CCN1CCNC[C@H]1C(=O)NC(C)(C)c1n[nH]c2c(C)cccc12 [SC-041, (S)-1-ethyl-N-(2-(7-methyl-1H-indazol-3-yl)propan-2-yl)piperazine-2-carboxamide]
1.3	Cc1cccn2c(C(C)(C)NC(=O)[C@@H]3CNCCN3CC3COC3)ncc12 [SC-042, (S)-N-(2-(8-methylimidazo[1,5-a]pyridin-3-yl)propan-2-yl)-1-(oxetan-3-ylmethyl)piperazine-2-carboxamide]
350	Cc1cccn2c(C(C)(C)NC(=O)[C@@H]3CN(C)CCN3)ncc12 [SC-043, (S)-4-methyl-N-(2-(8-methylimidazo[1,5-a]pyridin-3-yl)propan-2-yl)piperazine-2-carboxamide]
6.1	Cc1cccn2c(C(C)(C)NC(=O)[C@@H]3CN(C)CCN3Cc3cnn(C)c3)ncc12 [SC-044, (S)-4-methyl-1-((1-methyl-1H-pyrazol-4-yl)methyl)-N-(2-(8-methylimidazo[1,5-a]pyridin-3-yl)propan-2-yl)piperazine-2-carboxamide]
1.4	Cc1cccn2c(C(C)(C)NC(=O)[C@@H]3CN(C)CCN3CC(F)(F)F)ncc12 [SC-045, (S)-4-methyl-N-(2-(8-methylimidazo[1,5-a]pyridin-3-yl)propan-2-yl)-1-(2,2,2-trifluoroethyl)piperazine-2-carboxamide]
2.8	Cc1cccn2c(C(C)(C)NC(=O)[C@@H]3CN(C)CCN3C)ncc12 [SC-046, (S)-1,4-dimethyl-N-(2-(8-methylimidazo[1,5-a]pyridin-3-yl)propan-2-yl)piperazine-2-carboxamide]

EC50 [nM]	SMILES
0.45	Cc1cccn2c(C(C)(C)NC(=O)[C@@H]3CN(C)CCN3CC3CCOCC3)ncc12 [SC-047, (S)-4-methyl-N-(2-(8-methylimidazo[1,5-a]pyridin-3-yl)propan-2-yl)-1-((tetrahydro-2H-pyran-4-yl)methyl)piperazine-2-carboxamide]
9.2	Cc1cccn2c(C(C)(C)NC(=O)[C@@H]3CN(C)CCN3CC3COC3)ncc12 [SC-048, (S)-4-methyl-N-(2-(8-methylimidazo[1,5-a]pyridin-3-yl)propan-2-yl)-1-(oxetan-3-ylmethyl)piperazine-2-carboxamide]
3300	Cc1cccn2c(C(C)(C)NC(=O)[C@@H]3CN(CC(F)(F)F)CCN3)ncc12 [SC-049, (S)-N-(2-(8-methylimidazo[1,5-a]pyridin-3-yl)propan-2-yl)-4-(2,2,2-trifluoroethyl)piperazine-2-carboxamide]
8200	Cc1cccn2c(C(C)(C)NC(=O)[C@@H]3CN(CC(F)F)CCN3)ncc12 [SC-050, (S)-4-(2,2-difluoroethyl)-N-(2-(8-methylimidazo[1,5-a]pyridin-3-yl)propan-2-yl)piperazine-2-carboxamide]
990	COCCN1CCN[C@H](C(=O)NC(C)(C)c2ncc3c(C)cccn23)C1 [SC-051, (S)-4-(2-methoxyethyl)-N-(2-(8-methylimidazo[1,5-a]pyridin-3-yl)propan-2-yl)piperazine-2-carboxamide]
22	Cc1cccn2c(C(C)(C)NC(=O)[C@@H]3CN(C(C)C)CCN3)ncc12 [SC-052, (S)-4-isopropyl-N-(2-(8-methylimidazo[1,5-a]pyridin-3-yl)propan-2-yl)piperazine-2-carboxamide]
520	Cc1cccn2c(C(C)(C)NC(=O)[C@@H]3CN(C4CCC4)CCN3)ncc12 [SC-053, (S)-4-cyclobutyl-N-(2-(8-methylimidazo[1,5-a]pyridin-3-yl)propan-2-yl)piperazine-2-carboxamide]
17	CCN1CCN[C@H](C(=O)NC(C)(C)c2ncc3c(C)cccn23)C1 [SC-054, (S)-4-ethyl-N-(2-(8-methylimidazo[1,5-a]pyridin-3-yl)propan-2-yl)piperazine-2-carboxamide]
8400	Cc1cccn2c(C(C)(C)NC(=O)[C@@H]3CN(C4CCC(F)(F)CC4)CCN3)ncc12 [SC-055, (S)-4-(4,4-difluorocyclohexyl)-N-(2-(8-methylimidazo[1,5-a]pyridin-3-yl)propan-2-yl)piperazine-2-carboxamide]
3000	Cc1cccn2c(C(C)(C)NC(=O)[C@@H]3CN(C4CCOCC4)CCN3)ncc12 [SC-056, (S)-N-(2-(8-methylimidazo[1,5-a]pyridin-3-yl)propan-2-yl)-4-(tetrahydro-2H-pyran-4-yl)piperazine-2-carboxamide]
20	Cc1cccn2c(C(C)(C)NC(=O)[C@@H]3CN(CC4CCOCC4)CCN3)ncc12 [SC-057, (S)-N-(2-(8-methylimidazo[1,5-a]pyridin-3-yl)propan-2-yl)-4-((tetrahydro-2H-pyran-4-yl)methyl)piperazine-2-carboxamide]
1700	Cc1cccn2c(C(C)(C)NC(=O)[C@@H]3CN(Cc4ccccc4)CCN3)ncc12 [SC-058, (S)-4-benzyl-N-(2-(8-methylimidazo[1,5-a]pyridin-3-yl)propan-2-yl)piperazine-2-carboxamide]
130	Cc1cccn2c(C(C)(C)NC(=O)[C@@H]3CN(Cc4ccncc4)CCN3)ncc12 [SC-059, (S)-N-(2-(8-methylimidazo[1,5-a]pyridin-3-yl)propan-2-yl)-4-(pyridin-4-ylmethyl)piperazine-2-carboxamide]
1500	Cc1cccn2c(C(C)(C)NC(=O)[C@@H]3CN(Cc4ccccn4)CCN3)ncc12 [SC-060, (S)-N-(2-(8-methylimidazo[1,5-a]pyridin-3-yl)propan-2-yl)-4-(pyridin-2-ylmethyl)piperazine-2-carboxamide]
1700	Cc1cccn2c(C(C)(C)NC(=O)[C@@H]3CN(Cc4cccnc4)CCN3)ncc12 [SC-061, (S)-N-(2-(8-methylimidazo[1,5-a]pyridin-3-yl)propan-2-yl)-4-(pyridin-3-ylmethyl)piperazine-2-carboxamide]
220	Cc1cccn2c(C(C)(C)NC(=O)[C@@H]3CN(Cc4cnco4)CCN3)ncc12 [SC-062, (S)-N-(2-(8-methylimidazo[1,5-a]pyridin-3-yl)propan-2-yl)-4-(oxazol-5-ylmethyl)piperazine-2-carboxamide]
